Key:
[1] = system: human liver carcinoma HepG2 cells; experiment: MTT cytotoxicity assay against HepG2 cells; format: cell-based; conditions: for Structure–activity summary of cytotoxic activity (Fig. 4B) / IC50: HepG2 cells; for IC50: MTT, 24 h treatment
Protocol: To assess the antitumor properties of these compounds, we utilized the 3-(4,5-dimethylthiazol-2-yl)-2,5-diphenyl tetrazolium bromide (MTT) colorimetric assay, a widely used method to evaluate cell viability and cytotoxicity.
Following the incubation period, the cells were subjected to various concentrations of the prepared molecules and subsequently incubated for a duration of 24 h. […] Subsequently, a volume of 100 μL of dimethyl sulfoxide (DMSO) was introduced into each well in order to facilitate the dissolution of the purple formazan that had been generated. The quantification of the color intensity of the formazan product, which serves as an indicator of the cellular growth condition, is performed by employing an ELISA plate reader set at a wavelength of 570 nm. The experimental conditions were implemented with a minimum of three replicates, and the experiments were conducted on at least three separate occasions.

Row | SMILES | melting point [°C] | Structure–activity summary of cytotoxic activity (Fig. 4B) [1] | IC50 [1] [µM] | IC50 ([1]; Homo sapiens, HepG2, 24 h) [µM] | HepG2-Cell Viability (%) ([1]; concentration LogC 0.19 (µM)) | HepG2-Cell Viability (%) ([1]; concentration LogC 0.8 (µM)) | HepG2-Cell Viability (%) ([1]; concentration LogC 1.4 (µM)) | HepG2-Cell Viability (%) ([1]; concentration LogC 2 (µM)) | HepG2-Cell Viability (%) ([1]; concentration LogC -0.41 (µM))
1 | COc1cccc2cc(C(N)=O)c(=O)oc12 [Compound 4, 8-Methoxycoumarin-3-carboxamide] | 253 | moderate activity | 17.2 ± 1.05 | 17 | 65.8±1.73 | 57.78±2.46 | 47.29±3.09 | 37.94±2.75 | 75.81±1.48
2 | COc1cccc2cc(C(=O)NC(C)=O)c(=O)oc12 [Compound 6, N-acetyl 8-methoxycoumarin-3-carboxamide] | 285 | moderate activity | – | – | 54.47±1.72 | 44.64±1.98 | 37.53±2.14 | 27.04±2.87 | 59.86±1.33
3 | COc1ccc(Br)c2cc(C(=O)NC(C)=O)c(=O)oc12 [Compound 7, N-acetyl 5-bromo-8-methoxycoumarin-3-carboxamide] | 220 | improved activity | 2.57 ± 0.16 | 2.3 | 68.52±2.36 | 60.52±2.64 | 53.19±2.87 | 45.03±3.1 | 77.18±1.73
4 | COc1cccc2cc(C(=O)O)c(=O)oc12 [Compound 8, 8-methoxycoumarin-3-carboxylic acid] | 186 | moderate activity | 5.18 ± 0.31 | 5 | – | – | – | – | –
5 | COc1ccc(Br)c2cc(C(=O)O)c(=O)oc12 [Compound 9, 5-Bromo-8-methoxycoumarin-3-carboxylic acid] | 210 | attenuated activity | 41.6 ± 2.52 | 41 | 66.86±1.86 | 55.34±2.24 | 50.19±3.07 | 42.17±2.94 | 73.23±1.47
